Reference: US4863904A, “Dipeptides as renin inhibitors” (priority 1984, dated 1989)
Like-named read-outs stand apart in the source and are kept apart here.

Target: T1, human renin (Homo sapiens, UniProt P00797)
T1 sequence (P00797 67-406): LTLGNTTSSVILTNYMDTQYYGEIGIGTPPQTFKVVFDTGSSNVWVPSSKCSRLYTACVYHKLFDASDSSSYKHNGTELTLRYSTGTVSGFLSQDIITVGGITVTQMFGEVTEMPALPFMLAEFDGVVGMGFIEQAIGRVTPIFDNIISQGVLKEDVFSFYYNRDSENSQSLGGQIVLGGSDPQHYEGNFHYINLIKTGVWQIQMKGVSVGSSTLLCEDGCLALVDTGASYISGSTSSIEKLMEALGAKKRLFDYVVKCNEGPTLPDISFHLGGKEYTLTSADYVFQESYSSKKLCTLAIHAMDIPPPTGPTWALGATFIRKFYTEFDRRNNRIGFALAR
Test: Human renin-sheep renin substrate reaction system in vitro
Assay type: biochemical
Conditions: purified human renin, semipurified sheep renin substrate, pH 7.4, 37° C., 15 minutes, angiotensin I by radioimmunoassay
Experimental: The mixture was incubated for 15 minutes on a water bath at 37° C., and the reaction mixture was allowed to stand for 5 minutes on a water bath at 100° C. to stop the reaction. After cooling, 200 μl of the solution was taken up and the amount of angiotensin I produced by the addition of renin was determined by radioimmunoassay. The inhibitory effect was calculated by the following equation. [formula]
As a control, the same procedure as above was carried out by using 50 μl of dimethyl sulfoxide alone in place of the 50 μl of dimethyl sulfoxide solution containing a dipeptide of the present invention.

[1] = read-out: IC50 (molar concentration)

Compound | IC50 (IC50 (molar concentration)) | IC50 [1]
CC(C)C[C@@H](CO)NC(=O)[C@H](Cc1c[nH]cn1)NC(=O)C(CCCCc1ccccc1)Oc1cccc2ccccc12 (mixture of isomers) [N-[(±)-2-(1-Naphthoxy)-6-phenylhexanoyl]-L-histidyl-L-leucinol] |  | 76 µM
CC(C)C[C@@H](C=O)NC(=O)[C@H](Cc1c[nH]cn1)NC(=O)C(CCOCCc1ccccc1)Cc1cccc2ccccc12 (mixture of isomers) [N-[(±)-2-(1-Naphthylmethyl)-4-phenethoxybutyryl]-L-histidyl-L-leucinal] |  | 0.075 µM
CC(C)C[C@@H](CO)NC(=O)[C@H](Cc1c[nH]cn1)NC(=O)C(CCCOc1ccccc1)Cc1cccc2ccccc12 (mixture of isomers) [N-[(±)-2-(1-Naphthylmethyl)-5-phenoxyvaleryl]-L-histidyl-L-leucinol] |  | 26 µM
CC(C)C[C@@H](C=O)NC(=O)[C@H](Cc1c[nH]cn1)NC(=O)C(CC=Cc1ccccc1)Cc1cccc2ccccc12 (mixture of isomers) [N-[(±)-2-(1-Naphthylmethyl)-5-phenyl-4-pentenoyl]-L-histidyl-L-leucinal] |  | 0.22 µM
CC(C)C[C@@H](C=O)NC(=O)[C@H](Cc1c[nH]cn1)NC(=O)C(CC=CC=Cc1ccccc1)Cc1cccc2ccccc12 (mixture of isomers) [N-[(±)-2-(1-Naphthylmethyl)-7-phenyl-4,6-heptadienoyl]-L-histidyl-L-leucinal] |  | 0.44 µM
CC(C)C[C@@H](CO)NC(=O)[C@H](Cc1c[nH]cn1)NC(=O)C(CC=CC=Cc1ccccc1)Cc1cccc2ccccc12 (mixture of isomers) [N-[(±)-2-(1-Naphthylmethyl)-7-phenyl-4,6-heptadienoyl]-L-histidyl-L-leucinol] |  | 12 µM
CC(C)C[C@@H](C=O)NC(=O)[C@H](Cc1c[nH]cn1)NC(=O)C(Cc1ccccc1)C(=O)NCc1cccc2ccccc12 (mixture of isomers) [N-[(±)-2-(1-Naphthylmethylcarbamoyl)-3-phenylpropionyl]-L-histidyl-L-leucinal] |  | 8.2 µM
CC(C)C[C@@H](C=O)NC(=O)[C@H](Cc1c[nH]cn1)NC(=O)C(CNC(=O)Cc1cccc2ccccc12)Cc1ccccc1 (mixture of isomers) [N-[(±)-2-Benzyl-3-(1-naphthylacetamido)propionyl]-L-histidyl-L-leucinal] |  | 7.6 µM
CC(C)C[C@@H](C=O)NC(=O)[C@H](Cc1c[nH]cn1)NC(=O)C(CCCC(=O)c1ccccc1)Cc1cccc2ccccc12 (mixture of isomers) [N-[(±)-5-Benzoyl-2-(1-naphthylmethyl)valeryl]-L-histidyl-L-leucinal] |  | 0.19 µM
O=C(CC(Cc1cccc2ccccc12)C(=O)N[C@@H](Cc1c[nH]cn1)C(=O)N[C@H](CO)Cc1ccccc1)NCCc1ccccc1 (single isomer, unassigned) [N-[2-(1-naphthylmethyl)-3-(phenethylcarbamoyl)propionyl]-L-histidyl-L-phenylalaninol (isomer A)] |  | 91 µM
CC(C)C[C@@H](C=O)NC(=O)[C@H](Cc1c[nH]cn1)NC(=O)C(Cc1ccccc1)Cc1ccccc1 [N-(2-Benzyl-3-phenylpropionyl)-L-histidyl-L-leucinal] |  | 1.1 µM
CC(C)C[C@@H](C=O)NC(=O)[C@H](Cc1c[nH]cn1)NC(=O)C(CCCCc1ccccc1)Cc1cccc2ccccc12 (stereo partly drawn) [N-[2-(1-Naphthylmethyl)-6-phenylhexanoyl]-L-histidyl-L-leucinal] |  | 0.14 µM
CC(C)C[C@@H](CO)NC(=O)[C@H](Cc1c[nH]cn1)NC(=O)C(=Cc1cccc2ccccc12)CC(=O)NCCc1ccccc1 [N-[2-(1-Naphthylmethylene)-3-(phenethylcarbamoyl)propionyl]-L-histidyl-L-leucinol] |  | 69 µM

Continued, values first:

IC50 (IC50 (molar concentration)) | IC50 [1] | Compound
13 µM |  | CC(C)C[C@@H](CO)NC(=O)[C@H](Cc1c[nH]cn1)NC(=O)C(CCCC(=O)c1ccccc1)Cc1cccc2ccccc12 (mixture of isomers)
15 µM |  | CC(C)C[C@@H](CO)NC(=O)[C@H](Cc1c[nH]cn1)NC(=O)C(CCOCCc1ccccc1)Cc1cccc2ccccc12 (mixture of isomers) [N-[(±)-2-(1-Naphthylmethyl)-4-phenethoxybutyryl]-L-histidyl-L-leucinol]
 | 2.7 µM | CC(C)C[C@@H](CO)NC(=O)[C@H](Cc1c[nH]cn1)NC(=O)C(CC=Cc1ccccc1)Cc1cccc2ccccc12 (mixture of isomers) [N-[(±)-2-(1-Naphthylmethyl)-5-phenyl-4-pentenoyl]-L-histidyl-L-leucinol]
 | 13 µM | CC(C)C[C@@H](CO)NC(=O)[C@H](Cc1c[nH]cn1)NC(=O)C(CCCc1ccccc1)Cc1cccc2ccccc12 (mixture of isomers) [N-[(±)-2-(1-Naphthylmethyl)-5-phenylvaleryl]-L-histidyl-L-leucinol]
5.4 µM |  | CC(C)C[C@@H](CO)NC(=O)[C@H](Cc1c[nH]cn1)NC(=O)C(CCCCc1ccccc1)Cc1cccc2ccccc12 (mixture of isomers) [N-[(±)-2-(1-Naphthylmethyl)-6-phenylhexanoyl]-L-histidyl-L-leucinol]
 | 7.2 µM | CC(C)C[C@@H](C=O)NC(=O)[C@H](Cc1c[nH]cn1)NC(=O)C(CC(=O)NCc1cccc2ccccc12)Cc1ccccc1 (mixture of isomers) [N-[(±)-2-Benzyl-3-(1-naphthylmethylcarbamoyl)propionyl]-L-histidyl-L-leucinal]
 | 25 µM | CC(C)C[C@@H](CO)NC(=O)[C@H](Cc1c[nH]cn1)NC(=O)C(CC(=O)NCCc1ccccc1)Cc1cccc2ccccc12 (single isomer, unassigned) [N-[2-(1-Naphthylmethyl)-3-(phenethylcarbamoyl)propionyl]-L-histidyl-L-leucinol]
 | 65 µM | CC(C)C[C@@H](CO)NC(=O)[C@H](Cc1c[nH]cn1)NC(=O)C(CC(=O)Nc1ccccc1)Cc1cccc2ccccc12 (single isomer, unassigned) [N-[2-(1-Naphthylmethyl)-3-(phenylcarbamoyl)propionyl]-L-histidyl-L-leucinol(isomer A)]
 | 18 µM | CC(C)C[C@@H](CO)NC(=O)[C@H](Cc1c[nH]cn1)NC(=O)C(CC(=O)Nc1ccccc1)Cc1cccc2ccccc12 (single isomer, unassigned) [N-[2-(1-Naphthylmethyl)-3-(phenylcarbamoyl)propionyl]-L-histidyl-L-leucinol(isomer B)]
 | 47 µM | CC(C)C[C@@H](CO)NC(=O)[C@H](Cc1c[nH]cn1)NC(=O)C(CNCCCc1ccccc1)Cc1cccc2ccccc12 (single isomer, unassigned) [N-[2-(1-naphthylmethyl)-3-(3-phenylpropylamino)propionyl]-L-histidyl-L-leucinol (isomer A)]
 | 0.041 µM | CC(C)C[C@@H](C=O)NC(=O)[C@H](Cc1c[nH]cn1)NC(=O)C(CC(=O)NCCc1ccccc1)Cc1cccc2ccccc12 (single isomer, unassigned) [N-[2-(1-naphthylmethyl)-3-(phenethylcarbamoyl)propionyl]-L-histidyl-L-leucinal (isomer A)]
 | 7.4 µM | CC(C)C[C@@H](CO)NC(=O)[C@H](Cc1c[nH]cn1)NC(=O)C(CC(=O)NCCc1ccccc1)Cc1cccc2ccccc12 (single isomer, unassigned) [N-[2-(1-naphthylmethyl)-3-(phenethylcarbamoyl)propionyl]-L-histidyl-L-leucinol (isomer A)]
 | 0.07 µM | CC(C)C[C@@H](C=O)NC(=O)[C@H](Cc1c[nH]cn1)NC(=O)C(CC(=O)NCc1ccccc1)Cc1cccc2ccccc12 (single isomer, unassigned) [N-[3-(Benzylcarbamoyl)-2-(1-naphthylmethyl)propionyl]-L-histidyl-L-leucinal(isomer A)]
 | 4.9 µM | CC(C)C[C@@H](C=O)NC(=O)[C@H](Cc1c[nH]cn1)NC(=O)C(CC(=O)NCc1ccccc1)Cc1cccc2ccccc12 (single isomer, unassigned) [N-[3-(Benzylcarbamoyl)-2-(1-naphthylmethyl)propionyl]-L-histidyl-L-leucinal(isomer B)]
 | 19 µM | CC(C)C[C@@H](CO)NC(=O)[C@H](Cc1c[nH]cn1)NC(=O)C(CC(=O)NCc1ccccc1)Cc1cccc2ccccc12 (single isomer, unassigned) [N-[3-(Benzylcarbamoyl)-2-(1-naphthylmethyl)propionyl]-L-histidyl-L-leucinol(isomer A)]
 | 27 µM | CC(C)C[C@@H](CO)NC(=O)[C@H](Cc1c[nH]cn1)NC(=O)C(CC(=O)NCc1ccccc1)Cc1cccc2ccccc12 (single isomer, unassigned) [N-[3-(Benzylcarbamoyl)-2-(1-naphthylmethyl)propionyl]-L-histidyl-L-leucinol(isomer B)]
 | 28 µM | CC(C)C[C@@H](CO)NC(=O)[C@H](Cc1c[nH]cn1)NC(=O)C(CC(=O)NCCc1c[nH]c2ccccc12)Cc1cccc2ccccc12 (single isomer, unassigned) [N-{3-[2-(3-Indolyl)ethylcarbamoyl]-2-(1-naphthylmethyl)propionyl}-L-histidyl-L-leucinol (isomer A)]
 | 6.6 µM | CC(C)C[C@@H](CO)NC(=O)[C@H](Cc1c[nH]cn1)NC(=O)C(CC(=O)NCCc1c[nH]c2ccccc12)Cc1cccc2ccccc12 (single isomer, unassigned) [N-{3-[2-(3-Indolyl)ethylcarbamoyl]-2-(1-naphthylmethyl)propionyl}-L-histidyl-L-leucinol (isomer B)]
